Test results reported in US20220062233A1 (The Board of Trustees of the Leland Stanford Junior …, priority 2018, published 2022).

Key:
mutant HTT = test: Mutant HTT assay in induced pluripotent stem cells (iPSC); type: cell-based, human; conditions: HD patient iPSCs, one day incubation; class symbols; read-out: iPSC IC20 (nM) mHTT
Outline: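 Huntington's disease patient iPSCs (ND50036) plated at 7,000 cells/well, compound-treated after 48 h for one day in mTeSR1. Lysates normalised by BCA protein, then mutant HTT measured by sandwich ELISA: anti-human HTT capture, biotinylated mutant-HTT-specific detection, streptavidin-HRP/TMB colorimetric readout, interpolated from a standard curve.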

[1] = In vivo pharmacokinetics and brain penetration, single dose, mouse; conditions: for clearance / half-life / Vd / Cmax: C57BL6, blood; for clearance / half-life / Vd: intravenous, 0.5 mg/kg; for clearance / half-life / Vd / Cmax / Kp / Fabs (%): Mouse; for clearance / half-life / Vd / Cmax / Kp: single dose; for half-life: read-out: Elimination Half-life (converted); for Vd: read-out: Vdss; for Cmax: oral, 5 mg/kg, read-out: Cmax (maximum concentration in blood or plasma); for Kp: C57BL6, brain / blood, averaged over collection time points, read-out: BB_Ratios (brain-to-blood concentration ratio); for Fabs (%): single dose IV/PO
Description: (§1) B. In Vivo Pharmacokinetics and Brain Penetration
(§2) The pharmacokinetic assessment was carried out in rodents (e.g. Sprague-Dawley rats or C57BL6 mice) after a single dose administration by IV (e.g., 0.5 mg/kg) or PO (e.g., 5 mg/kg). Biological samples were collected at pre-determined time points, batch-processed, and the test articles were extracted and quantified with LC-MS, utilizing internal standards and separately prepared calibration curves. Blood (or plasma) concentration to time profiles were acquired for compounds and a selected list is presented in Table 6 with the non-compartmental PK parameters (e.g., peak concentration in circulation (Cmax), absolute bioavailability (Fabs), elimination half-life, clearance (CL), and volume of distribution at steady state (Vdss)). Upon terminal collection, the brains were also collected and homogenized in an extraction buffer, followed by quantification with LC-MS. After brain concentration levels (ng/g of brain tissue) were determined, the mean ratios of the brain-to-blood (BB) concentration (or brain-to-plasma concentration) at various collection time points were averaged, then shown in Table 6 as BB Ratio to indicate the extent of brain penetration.
FIG. 1A is a graph showing in vitro mouse hepatocyte stability on compound #2 (closed circle) and compound #42 (open circle). FIG. 1B is a graph showing blood concentration-time profile of mouse (N=3 per group) after IV administration of 0.5 mg/kg of compound #2 (closed circle) or #42 (open circle), or PO administration of 5 mg/kg of compound #2 (closed triangle) or #42 (open triangle).

[2] = tested on: Gmr::HTT97Q fly (mutant HTT, rough eye); test: HD-Drosophila phenotypic assay (rough eye analysis); type: in vivo, Drosophila melanogaster; conditions: Gmr-HTT97Q flies, compound 10 μM in media
From the text: D. Alleviation of Neuron Degeneration Phenotypes of Mutant HTT in Drosophila HD Models
The Drosophila melanogaster (fruit fly) HD models carry the coding sequence of human HTT exon1 with 97 CAG repeats to mimic mutant HTT of Huntington's disease (HD). The Gmr::HTT97Q fly, expressing mutant HTT primarily in the neurons of Drosophila compound eyes, has a severe degeneration of photoreceptor neurons and the phenotypic trait ‘rough eye’. All of the fly stocks and genetics crosses are maintained at 25° C. on standard cornmeal yeast agar media.
b. Eye Morphology (Rough Eye) Analysis
Fifteen adult male flies (Gmr-HTT97Q/Gmr-HTT97Q or Gmr/Gmr) are crossed with 15 virgin female flies W1118(+/+) in a vial containing standard yeast agar media with the compound in a concentration of 10 μM. Parent-flies are removed from vials at day 7, followed by a collection of newly hatched flies for ‘rough eye’ analysis. The morphology of compound eyes is captured using a Leica DMR upright microscope equipped with a digital camera (CoolSNAP 5.0, Photometrics). To increase the depth of field, imaging software is used to create montage composite images (Helicon Focus, HeliconSoft). A total of 10 flies are collected for analysis in each individual condition, and the biological experiment is conducted three times. DMSO, the reagent solvent of the compound, is included as a control.

[3] = In vivo pharmacokinetics and brain penetration, single dose, rat
Description: as §1, §2

[4] = mouse, PO 5 mg/kg, compound #42 versus #2

With OCCOCc1ccc(CN[C@@H]2CCCc3c2[nH]c2ccc(Br)cc32)cc1 (single isomer, unassigned) [Compound 28] the IC20 (mutant HTT) was < 100 nM, the clearance [1] was 16.7 mL/min/kg and the half-life [1] was 2.4 h. For the same compound, the Vd [1] was 3.3 L/kg, the Cmax [1] was > 300 nM and the Kp [1] was ≥ 1. The “Fabs (%)” value [1] was >70%.

With OCc1ccc(CNC2CCCc3c2[nH]c2ccc(Br)cc32)cc1 (stereo not drawn) [Compound 1] the “HD-Drosophila Phenotypic assay (rescue of rough eye phenotype)” value [2] was “& (rough eye phenotype of HD flies is rescued by testing compound greater than 40%)”, the Kp ([3]; Sprague-Dawley, brain / blood, single dose, averaged over collection time points, read-out: BB_Ratios (brain-to-blood concentration ratio)) was ≥ 1 and the clearance ([3]; Sprague-Dawley, in vivo, intravenous, single dose) was 85 mL/min/kg. The Vd ([3]; Sprague-Dawley, in vivo, intravenous, single dose, read-out: Vdss) was 12 L/kg, the Cmax ([3]; Sprague-Dawley, in vivo, single dose, read-out: Cmax (maximum concentration in blood or plasma)) was 100 to 300 nM and the half-life ([3]; Sprague-Dawley, in vivo, single dose, read-out: Elimination Half-life (converted)) was 1.9 h. For the same compound, the “Fabs (%)” value ([3]; single dose IV/PO) was <30%.

With OCc1ccc(CN[C@@H]2CCCc3c2[nH]c2ccc(Br)cc32)cc1 [Compound 2, (R)-(4-(((6-bromo-2,3,4,9-tetrahydro-1H-carbazol-1-yl)amino)methyl)phenyl)methanol] the IC20 (mutant HTT) was < 100 nM, the “HD-Drosophila Phenotypic assay (rescue of rough eye phenotype)” value [2] was “& (rough eye phenotype of HD flies is rescued by testing compound greater than 40%)” and the clearance [1] was 183 mL/min/kg. The half-life [1] was 0.8 h, the Vd [1] was 11 L/kg and the Cmax [1] was < 100 nM. For the same compound, the “Fabs (%)” value [1] was <30%.

With CC(C)(O)c1ccc(CN[C@@H]2CCCc3c2[nH]c2ccc(Br)cc32)cc1 [Compound 31, (R)-2-(4-(((6-bromo-2,3,4,9-tetrahydro-1H-carbazol-1-yl)amino)methyl)phenyl)propan-2-ol] the IC20 (mutant HTT) was < 100 nM, the clearance [1] was 50 mL/min/kg and the half-life [1] was 2.6 h. The Vd [1] was 9.1 L/kg, the Cmax [1] was 100 to 300 nM and the Kp [1] was ≥ 1. For the same compound, the “Fabs (%)” value [1] was 30-70%.

In the case of [2H]C([2H])(O)c1ccc(CN[C@@H]2CCCc3c2[nH]c2ccc(Br)cc32)cc1 [Compound 42, (R)-(4-(((6-bromo-2,3,4,9-tetrahydro-1H-carbazol-1-yl)amino)methyl)phenyl)methan-d2-ol], the IC20 (mutant HTT) is reported as < 100 nM, the clearance [1] is reported as 80 mL/min/kg and the half-life [1] is reported as 1.2 h. For the same compound, the Vd [1] was 7.2 L/kg, the Cmax [1] was 100 to 300 nM and the “Fabs (%)” value [1] was <30%. The “elimination half-life (comparison)” value ([1]; mouse, IV 0.5 mg/kg, compound #42 versus #2, FIG. 1B) was “longer”, the “Cmax (comparison)” value [1, 4] was “significantly increased” and the “Fabs (comparison)” value [1, 4] was “significantly increased”. For the same compound, the “CL (comparison)” value ([1]; mouse, randomized cross-over after 48-hour washout, compound #42 versus #2) was “slower CL”.

With CS(=N)(=O)c1ccc(CN[C@@H]2CCCc3c2[nH]c2ccc(Br)cc32)cc1 (stereo partly drawn) [Compound 49, (4-((((R)-6-bromo-2,3,4,9-tetrahydro-1H-carbazol-1-yl)amino)methyl)phenyl)(imino)(methyl)-λ^6-sulfanone] the IC20 (mutant HTT) was < 100 nM, the clearance [1] was 55 mL/min/kg and the half-life [1] was 1.1 h. For the same compound, the Vd [1] was 5.1 L/kg, the Cmax [1] was > 300 nM and the Kp [1] was ≥ 1. For the same compound, the “Fabs (%)” value [1] was <30%.
